For 14 molecules, Km, Vmax and IC50 results are on record in ChEMBL document CHEMBL1124621, “Inhibition of mammalian folylpolyglutamate synthetase and human dihydrofolate reductase by 5,8-dideaza analogues of folic acid and aminopterin bearing a terminal L-ornithine” (J Med Chem, 1989).

Series [1] relates to folylpolyglutamate synthetase. As to the kind of experiment: (§1) Km for hog liver folyl-poly-glutamate synthetase was evaluated. It is filed as ADME, Sus scrofa. The following applies: pig, hog liver folylpolyglutamate synthetase.
The species entered for series [2] is Sus scrofa. Put plainly: Maximal elimination rate of metabolism for hog liver folyl-poly-glutamate synthetase was evaluated. The class given is ADME. Further details: unit not given here. The following applies: pig.
The species named for series [3] is Sus scrofa. The series is described as §1. The class given is ADME. Conditions: pig.
The target of another series is T1, Dihydrofolate reductase (Homo sapiens, UniProt P00374).
T1 sequence (P00374 whole entry): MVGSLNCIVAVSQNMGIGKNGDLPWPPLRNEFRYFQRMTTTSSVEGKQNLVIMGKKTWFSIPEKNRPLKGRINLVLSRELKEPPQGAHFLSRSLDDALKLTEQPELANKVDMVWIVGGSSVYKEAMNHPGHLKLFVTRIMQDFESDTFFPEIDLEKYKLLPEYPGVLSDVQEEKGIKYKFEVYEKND
As to the kind of experiment: Inhibition of human dihydrofolate reductase. The following applies: read-out: I50.

SMILES strings stand for the structures. pIC50: −log10 of the molar value.

In the case of `Nc1nc(N)c2c(Cl)c(CNc3ccc(C(=O)NC(CCC(=O)O)C(=O)O)cc3)ccc2n1` (stereo not drawn), the Michaelis constant (Km) in series [1] was 0.2 µM. For the same molecule, the Vmax in the series listed under Sus scrofa [2] is recorded as 57.
For the molecule `Nc1nc(O)c2cc(COc3ccc(C(=O)NC(CCC(=O)O)C(=O)O)cc3)ccc2n1` (stereo not drawn), the Km in series [1] turned out to be 22 µM. The Vmax in the series listed under Sus scrofa [2] was determined as 25.
As to `Nc1nc2ncc(CNc3ccc(C(=O)N[C@@H](CCC(=O)O)C(=O)O)cc3)nc2c(=O)[nH]1` (stereo in doubt; form 2) [FOLIC ACID], the Michaelis-Menten constant (Km) in the series filed under Sus scrofa [3] stood at 93 µM. In the series listed under Sus scrofa [2], the Vmax is reported as 61.
`NCCCC(NC(=O)c1ccc(OCc2ccc3nc(N)nc(O)c3c2)cc1)C(=O)O` (stereo not drawn): the pIC50 on Dihydrofolate reductase is 6.28.
Take `NCCCC(NC(=O)c1ccc(OCc2ccc3nc[nH]c(=O)c3c2)cc1)C(=O)O` (stereo not drawn): at Dihydrofolate reductase, the pIC50 is 5.42.
As for `O=C(O)CCC(NC(=O)c1ccc(OCc2ccc3ncnc(O)c3c2)cc1)C(=O)O` (stereo not drawn), the Km in series [1] was 35 µM. Further, in the series listed under Sus scrofa [2], the Vmax was found to be 95.
For `NCCCC(NC(=O)c1ccc(NCc2ccc3nc(N)nc(N)c3c2Cl)cc1)C(=O)O` (stereo not drawn), the pIC50 at Dihydrofolate reductase is 8.52.
The same measure, in the same setting: to `NCCCC(NC(=O)c1ccc(NCc2ccc3nc(N)[nH]c(=O)c3c2Cl)cc1)C(=O)O` (stereo not drawn) belongs 6.37.
In the case of `O=C(O)CCC(NC(=O)c1ccc(SCc2ccc3ncnc(O)c3c2)cc1)C(=O)O` (stereo not drawn), the Km in series [1] stood at 8.1 µM. Further, the Vmax in the series filed under Sus scrofa [2] is 50.
As to `Nc1nc2ncc(CNc3ccc(C(=O)N[C@@H](CCC(=O)O)C(=O)O)cc3)nc2c(=O)[nH]1` (stereo in doubt; form 1) [FOLIC ACID], the Km in the series filed under Sus scrofa [3] came out at 7.7 µM. Also, the Vmax in the series filed under Sus scrofa [2] turned out to be 100.
With `NCCCC(NC(=O)c1ccc(SCc2ccc3ncnc(O)c3c2)cc1)C(=O)O` (stereo not drawn), the pIC50 at Dihydrofolate reductase is 5.42.
Regarding `NCCCC(NC(=O)c1ccc(SCc2ccc3nc(N)[nH]c(=O)c3c2)cc1)C(=O)O` (stereo not drawn), the pIC50 on Dihydrofolate reductase was 5.82.
With `Nc1nc(O)c2c(Cl)c(CNc3ccc(C(=O)NC(CCC(=O)O)C(=O)O)cc3)ccc2n1` (stereo not drawn), the Km in series [1] was found to be 0.3 µM. Also, the Vmax in the series filed under Sus scrofa [2] is reported as 68. Moreover, on Dihydrofolate reductase, the pIC50 is 7.00.
Regarding `Nc1nc(O)c2cc(CSc3ccc(C(=O)NC(CCC(=O)O)C(=O)O)cc3)ccc2n1` (stereo not drawn), in series [1], the Km came out at 15 µM. Further, the Vmax in the series listed under Sus scrofa [2] turned out to be 33.

As a reminder, the Km is the substrate concentration at which the rate is half of its maximum.
